Measurements taken from US10941158B2, “Pyrazole ACC inhibitors and uses thereof” (Gilead Apollo, LLC, priority 2015, dated 2021).
In brackets after ≈: the same amount, converted by molar mass. Like-named read-outs stand apart in the source and are kept apart here.

Tests used:
C. albicans ATCC 90028 = experiment: Anti-Fungal (Candida) Activity Assay, broth microtiter MIC; assay type: cell-based; conditions: ATCC90028, 3 replicates, MIC recorded at 48 h, read-out: MIC C. albicans ATCC 90028
Protocol: (§1) Compounds of the present invention were evaluated in an Anti-Fungal Activity Assay. An exemplary procedure for the assay, which measures the susceptibility of various Candida species to anti-fungal compounds, follows. Compounds to be tested (including fluconazole and amphotericin B) were dissolved in DMSO to obtain a solution having a concentration of 1 mg/mL. […] All species were grown from frozen stock by directly plating on to freshly prepared Sabouraud Dextrose agar (BD, Difco) and incubated overnight in ambient air at 35° C. for 24 h. A direct suspension was prepared in RPMI 1640+MOPS (Lonza, Biowhittaker) by taking individual colonies from the overnight cultures using sterile swabs soaked in sterile saline. The concentration of the suspension was determined using pre-determined standard curves. […] Broth microtiter MIC challenge plates were prepared following CLSI guidelines (M27-A3, Vol. 28 No. 14). The original CLSI guidelines focused on reading Candida MICs after 48 h of incubation. As reading after only 24 h offers a clear advantage of patient care, QC limits are being established for all drugs at 24 h. That being said there are no known interpretive breakpoints for amphotericin B at 24 h and the current fluconazole interpretive breakpoints are based on a 48 h reading. The MIC for the test compounds were recorded at 48 h. All MIC determinations were achieved by visually comparing the growth found in the antibiotic challenged wells to that of the growth control.

C. krusei ATCC 6258 = experiment: as above; assay type: cell-based; conditions: Pichia kudriavzevii, ATCC6258; 3 replicates, MIC recorded at 48 h; read-out: MIC C. krusei ATCC 6258
Protocol: as §1

[1] = tested on: C. parapsilosis ATCC 22019; experiment: as above; assay type: cell-based; conditions: Lodderomyces parapsilosis, ATCC22019; 3 replicates, MIC recorded at 48 h; read-out: MIC C. parapsilosis ATCC 22019
Protocol: as §1

human (hACC2) ACC2 = human (hACC2) ACC2 (Homo sapiens, UniProt O00763); experiment: In vitro Acetyl-CoA Carboxylase (ACC) inhibition assay (ADP-Glo), hACC2; assay type: biochemical
Chain of human (hACC2) ACC2 (O00763 whole entry): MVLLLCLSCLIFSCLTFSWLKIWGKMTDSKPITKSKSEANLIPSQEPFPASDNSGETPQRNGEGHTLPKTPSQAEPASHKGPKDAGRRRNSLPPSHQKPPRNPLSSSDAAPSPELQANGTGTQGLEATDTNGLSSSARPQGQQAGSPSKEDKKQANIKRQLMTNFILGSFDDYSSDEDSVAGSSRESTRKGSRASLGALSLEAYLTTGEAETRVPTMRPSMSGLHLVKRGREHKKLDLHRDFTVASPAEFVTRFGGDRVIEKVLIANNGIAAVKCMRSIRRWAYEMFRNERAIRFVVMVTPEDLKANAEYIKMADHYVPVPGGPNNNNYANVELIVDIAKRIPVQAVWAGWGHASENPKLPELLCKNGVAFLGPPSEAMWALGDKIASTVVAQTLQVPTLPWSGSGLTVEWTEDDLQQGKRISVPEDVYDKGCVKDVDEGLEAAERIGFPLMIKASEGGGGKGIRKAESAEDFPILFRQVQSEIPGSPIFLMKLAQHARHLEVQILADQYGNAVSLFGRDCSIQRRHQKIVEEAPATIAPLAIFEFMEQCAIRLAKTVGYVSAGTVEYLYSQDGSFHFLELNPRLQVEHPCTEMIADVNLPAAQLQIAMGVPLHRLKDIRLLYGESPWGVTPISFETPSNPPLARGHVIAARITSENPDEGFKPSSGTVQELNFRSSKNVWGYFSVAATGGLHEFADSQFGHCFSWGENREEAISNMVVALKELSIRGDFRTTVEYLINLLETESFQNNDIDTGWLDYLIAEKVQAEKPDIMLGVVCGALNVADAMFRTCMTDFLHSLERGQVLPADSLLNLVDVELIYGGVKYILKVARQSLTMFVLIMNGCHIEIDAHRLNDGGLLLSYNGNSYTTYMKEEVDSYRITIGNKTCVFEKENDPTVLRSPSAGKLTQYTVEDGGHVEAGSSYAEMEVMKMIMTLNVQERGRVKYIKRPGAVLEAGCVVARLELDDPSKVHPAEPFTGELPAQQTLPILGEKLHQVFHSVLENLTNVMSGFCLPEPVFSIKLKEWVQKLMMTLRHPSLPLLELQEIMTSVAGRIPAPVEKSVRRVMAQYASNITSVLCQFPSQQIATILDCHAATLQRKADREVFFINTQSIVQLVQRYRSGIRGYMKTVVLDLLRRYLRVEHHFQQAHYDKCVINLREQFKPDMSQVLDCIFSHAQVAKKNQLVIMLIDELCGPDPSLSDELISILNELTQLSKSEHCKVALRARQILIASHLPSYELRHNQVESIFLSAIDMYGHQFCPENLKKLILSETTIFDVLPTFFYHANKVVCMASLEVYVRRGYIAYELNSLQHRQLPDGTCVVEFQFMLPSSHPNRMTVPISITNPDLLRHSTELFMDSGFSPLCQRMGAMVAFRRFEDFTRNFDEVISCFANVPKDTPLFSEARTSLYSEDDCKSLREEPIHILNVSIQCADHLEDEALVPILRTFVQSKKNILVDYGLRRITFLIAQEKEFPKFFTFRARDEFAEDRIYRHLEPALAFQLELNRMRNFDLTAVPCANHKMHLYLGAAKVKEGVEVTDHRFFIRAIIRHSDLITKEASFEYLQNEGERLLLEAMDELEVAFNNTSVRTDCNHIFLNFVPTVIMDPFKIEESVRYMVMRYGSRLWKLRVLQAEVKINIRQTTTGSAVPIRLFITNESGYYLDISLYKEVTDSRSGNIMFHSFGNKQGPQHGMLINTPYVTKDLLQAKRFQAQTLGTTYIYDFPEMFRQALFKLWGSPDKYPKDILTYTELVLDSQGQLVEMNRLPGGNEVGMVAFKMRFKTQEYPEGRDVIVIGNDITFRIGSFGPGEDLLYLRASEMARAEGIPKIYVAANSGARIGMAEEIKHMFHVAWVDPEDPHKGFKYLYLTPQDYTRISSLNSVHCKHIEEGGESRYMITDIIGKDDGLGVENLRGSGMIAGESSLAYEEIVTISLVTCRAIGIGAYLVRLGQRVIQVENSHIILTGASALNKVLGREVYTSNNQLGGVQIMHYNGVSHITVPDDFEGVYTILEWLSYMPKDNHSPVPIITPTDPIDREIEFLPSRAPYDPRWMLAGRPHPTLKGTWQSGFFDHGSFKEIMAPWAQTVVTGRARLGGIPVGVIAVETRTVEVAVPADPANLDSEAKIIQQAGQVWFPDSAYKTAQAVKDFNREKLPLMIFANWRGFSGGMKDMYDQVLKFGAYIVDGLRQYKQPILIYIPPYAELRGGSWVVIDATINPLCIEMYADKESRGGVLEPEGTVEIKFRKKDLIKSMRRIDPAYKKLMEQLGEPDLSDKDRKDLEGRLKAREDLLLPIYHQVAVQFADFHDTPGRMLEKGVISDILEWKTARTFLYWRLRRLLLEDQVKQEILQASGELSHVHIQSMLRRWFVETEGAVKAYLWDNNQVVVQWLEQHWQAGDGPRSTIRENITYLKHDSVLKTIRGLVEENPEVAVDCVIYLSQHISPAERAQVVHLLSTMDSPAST
Protocol: The detailed procedure is as follows. […] 10 μL ADP glo reagent was added. […] 20 μL kinase detection reagent was added.
“NA” stands for “not assayed.”

[2] = tested on: Fusarium moniliforme (Fm); experiment: Growth inhibition assay of fungal pathogens; assay type: cell-based; conditions: Fusarium verticillioides, 48 h, 48 hours, read-out: Concentration at 90% Inhibition Fm
Protocol: (§2) Compounds of the present invention were evaluated in a growth inhibition assay to determine the ability to control the growth of fungal pathogens, such as Botrtyis cinerea (Bc), Collectotrichum graminicola (Cg). Diplodia maydis (Dm), Fusarium moniliforme (Fm), Fusarium virguliforme (Fv), Phytophthora capsici (Pc), Rhizoctonia solani (Rs), and Septoria tritici (St). Compounds to be tested were dissolved in DMSO at 2.5 mg/ml to produce compound stock solutions (“stocks”). Stocks were diluted with DMSO by a five-fold dilution in a 96-well stock plate, and two sets of final concentrations of 50, 10, and 2 ppm or 2, 0.4, and 0.08 ppm were obtained in vitro. A set of positive controls was also prepared, with various concentrations of Soraphen (2, 0.4, and 0.08 ppm), Metalaxyl (1.1, 0.22, and 0.04 ppm), and Metconazole (2, 0.4, and 0.08 ppm or 0.2, 0.04, and 0.008 ppm) after the five-fold dilutions. Negative controls on each plate included 2% DMSO, water, and a blank (media+2% DMSO). Fungal spores were isolated from previously sub-cultured plates of Botrtyis cinerea (Bc). Collectotrichum graminicola (Cg). Diplodia maydis (Dm), Fusarium moniliforme (Fm), Fusarium virguliforme (Fv), Phytophthora capsici (Pc), and Septoria tritici (St). The isolated spores were diluted to individual concentrations with a 17% V8 liquid media. For Rhizoctonia solani (Rs) and Pythium irregulare, 1.5 mm mycelial plugs were used in place of spores and ¼ Potato Dextrose Broth (PDB) was used for dilution. The spore concentrations and plug sizes were based on growth curves generated at 48 hours for each pathogen. In a second 96-well plate, the spores or mycelial plugs, media, diluted compound solutions, and controls were combined. Once the compound was added, a true final concentration of compound in each well was measured by an OD600 reading, which adjusted for any compound precipitation that might have occurred in the well. Plate readings were repeated at both 24 and 48 hours. The blank negative control was used as a background subtraction. Additional visual ratings were performed at both 24 and 48 hours for checking on precipitation and confirming efficacy. Visual and OD600 ratings of the compounds at 48 hours were compared to the 2% DMSO negative control, and the percent of pathogen growth inhibition was determined based on those values.

[3] = tested on: Collectotrichum graminicola (Cg); experiment: Growth inhibition assay of fungal pathogens; assay type: cell-based; conditions: 48 h, read-out: Concentration at 90% Inhibition Cg
Protocol: as §2

Septoria tritici (St) = experiment: Growth inhibition assay of fungal pathogens; assay type: cell-based; conditions: 48 hours; for IC90: Zymoseptoria tritici, read-out: Concentration at 90% Inhibition St
Protocol: as §2

Rhizoctonia solani (Rs) = experiment: Growth inhibition assay of fungal pathogens; assay type: cell-based; conditions: 48 h, read-out: Concentration at 90% Inhibition Rs
Protocol: as §2

Diplodia maydis (Dm) = experiment: Growth inhibition assay of fungal pathogens; assay type: cell-based; conditions: Stenocarpella maydis, 48 h, read-out: Concentration at 90% Inhibition Dm
Protocol: as §2

[4] = tested on: Phytophthora capsici (Pc); experiment: Growth inhibition assay of fungal pathogens; assay type: cell-based; conditions: 48 hours; for IC90: Phytophthora capsici, read-out: Concentration at 90% Inhibition Pc
Protocol: as §2

[5] = tested on: Fusarium virguliforme (Fv); experiment: Growth inhibition assay of fungal pathogens; assay type: cell-based; conditions: 48 h, 48 hours, read-out: Concentration at 90% Inhibition Fv
Protocol: as §2

Botrtyis cinerea (Bc) = experiment: Growth inhibition assay of fungal pathogens; assay type: cell-based; conditions: 48 h, read-out: Concentration at 90% Inhibition Bc
Protocol: as §2

MIC (C. albicans ATCC 90028)	MIC (C. krusei ATCC 6258)	MIC [1]	IC50 (human (hACC2) ACC2)	Compound	IC90 ([2]; Table 4a)	IC90 ([2]; Table 4b)	IC90 ([3]; Table 4a)	IC90 ([3]; Table 4b)	Concentration at 90% Inhibition St (Septoria tritici (St); Table 4b)	IC90 (Septoria tritici (St); Table 4a)	IC90 (Rhizoctonia solani (Rs); Table 4a)	IC90 (Rhizoctonia solani (Rs); Table 4b)	IC90 (Diplodia maydis (Dm); Table 4a)	IC90 (Diplodia maydis (Dm); Table 4b)	IC90 ([4]; Table 4a)	Concentration at 90% Inhibition Pc ([4]; Table 4b)	IC90 ([5]; Table 4b)	IC90 (Botrtyis cinerea (Bc); Table 4b)	IC90 (Septoria tritici (St); Table 4b)	IC90 ([4]; Table 4b)	further results
> 4.1 µg/mL	2.1 to 4 µg/mL (≈ 3.42 to 6.52 µM)	> 4.1 µg/mL	10 to 40 nM	COc1ccc(F)cc1[C@H](Cn1c(=O)n(C(C)(C)C(=O)N2CCOCC2)c(=O)c2c(C)c(-n3cccn3)sc21)OC(C)C [Compound I-3, (R)-1-(2-(5-fluoro-2-methoxyphenyl)-2-isopropoxyethyl)-5-methyl-3-(2-methyl-1-morpholino-1-oxopropan-2-yl)-6-(1H-pyrazol-1-yl)thieno[2,3-d]pyrimidine-2,4(1H,3H)-dione]	2 µg/mL (≈ 3.26 µM)	2 µg/mL (≈ 3.26 µM)	> 50 µg/mL	> 50 µg/mL	D (“D” provided a compound concentration of >50 ppm at 90% inhibition of fungal pathogens)	> 50 µg/mL	> 50 µg/mL	> 50 µg/mL	> 50 µg/mL	10 µg/mL (≈ 16.3 µM)	> 50 µg/mL	D (“D” provided a compound concentration of >50 ppm at 90% inhibition of fungal pathogens)	2 µg/mL (≈ 3.26 µM)	10 µg/mL (≈ 16.3 µM)			IC90 ([5]; Table 4a): 2 µg/mL (≈ 3.26 µM); IC90 (Botrtyis cinerea (Bc); Table 4a): > 50 µg/mL
> 4.1 µg/mL	2.1 to 4 µg/mL (≈ 3.59 to 6.83 µM)	> 4.1 µg/mL	10 to 40 nM	COc1ccc(F)cc1[C@H](Cn1c(=O)n(C(C)(C)C(N)=O)c(=O)c2c(C)c(-n3cccn3)sc21)OC1CCOCC1 [Compound I-4, (R)-2-(1-(2-(5-fluoro-2-methoxyphenyl)-2-((tetrahydro-2H-pyran-4-yl)oxy)ethyl)-5-methyl-2,4-dioxo-6-(1H-pyrazol-1-yl)-1,4-dihydrothieno[2,3-d]pyrimidin-3(2H)-yl)-2-methylpropanamide]	2 µg/mL (≈ 3.41 µM)	2 µg/mL (≈ 3.41 µM)	> 50 µg/mL	10 µg/mL (≈ 17.1 µM)	D (“D” provided a compound concentration of >50 ppm at 90% inhibition of fungal pathogens)	> 50 µg/mL	> 50 µg/mL	> 50 µg/mL	> 50 µg/mL	> 50 µg/mL	> 50 µg/mL	D (“D” provided a compound concentration of >50 ppm at 90% inhibition of fungal pathogens)	> 50 µg/mL	2 µg/mL (≈ 3.41 µM)			IC90 ([5]; Table 4a): > 50 µg/mL; IC90 (Botrtyis cinerea (Bc); Table 4a): 2 µg/mL (≈ 3.41 µM)
1.1 to 2 µg/mL (≈ 1.83 to 3.34 µM)	1.1 to 2 µg/mL (≈ 1.83 to 3.34 µM)	2.1 to 4 µg/mL (≈ 3.5 to 6.67 µM)	3 to 10 nM	COc1ccc(F)cc1[C@H](Cn1c(=O)n(C(C)(C)C(N)=O)c(=O)c2c(C)c(-n3cccn3)sc21)O[C@H]1CC[C@@H](O)CC1 [Compound I-5, 2-(1-((R)-2-(5-fluoro-2-methoxyphenyl)-2-(((s,4S)-4-hydroxycyclohexyl)oxy)ethyl)-5-methyl-2,4-dioxo-6-(1H-pyrazol-1-yl)-1,4-dihydro-thieno[2,3-d]pyrimidin-3(2H)-yl)-2-methylpropanamide]	2 µg/mL (≈ 3.34 µM)	2 µg/mL (≈ 3.34 µM)	> 50 µg/mL	> 50 µg/mL	D (“D” provided a compound concentration of >50 ppm at 90% inhibition of fungal pathogens)	> 50 µg/mL	> 50 µg/mL	10 µg/mL (≈ 16.7 µM)	> 50 µg/mL	10 µg/mL (≈ 16.7 µM)	> 50 µg/mL	D (“D” provided a compound concentration of >50 ppm at 90% inhibition of fungal pathogens)	10 µg/mL (≈ 16.7 µM)	2 µg/mL (≈ 3.34 µM)			IC90 ([5]; Table 4a): > 50 µg/mL; IC90 (Botrtyis cinerea (Bc); Table 4a): 2 µg/mL (≈ 3.34 µM)
			10 to 40 nM	COc1ccc(F)cc1[C@H](Cn1c(=O)n(C(C)(C)C(=O)N2CC(O)C2)c(=O)c2c(C)c(-n3cccn3)sc21)OC1CCOCC1 [Compound I-9, (R)-1-(2-(5-fluoro-2-methoxyphenyl)-2-((tetrahydro-2H-pyran-4-yl)oxy)ethyl)-3-(1-(3-hydroxyazetidin-1-yl)-2-methyl-1-oxopropan-2-yl)-5-methyl-6-(1H-pyrazol-1-yl)thieno[2,3-d]pyrimidine-2,4(1H,3H)-dione]		> 50 µg/mL		> 50 µg/mL				> 50 µg/mL		> 50 µg/mL			> 50 µg/mL	> 50 µg/mL	> 50 µg/mL	> 50 µg/mL	
			3 to 10 nM	COc1ccccc1[C@H](Cn1c(=O)n(C(C)(C)C(N)=O)c(=O)c2c(C)c(-n3cccn3)sc21)OC1CCOCC1 [Compound I-10, (R)-2-(1-(2-(2-methoxyphenyl)-2-((tetrahydro-2H-pyran-4-yl)oxy)ethyl)-5-methyl-2,4-dioxo-6-(1H-pyrazol-1-yl)-1,4-dihydrothieno[2,3-d]pyrimidin-3(2H)-yl)-2-methylpropanamide]		10 µg/mL (≈ 17.6 µM)		> 50 µg/mL				> 50 µg/mL		> 50 µg/mL			> 50 µg/mL	> 50 µg/mL	> 50 µg/mL	> 50 µg/mL	
			10 to 40 nM	COc1ccccc1[C@H](Cn1c(=O)n(C(C)(C)C(N)=O)c(=O)c2c(C)c(-n3cccn3)sc21)OC(C)C [Compound I-16, (R)-2-(1-(2-isopropoxy-2-(2-methoxyphenyl)ethyl)-5-methyl-2,4-dioxo-6-(1H-pyrazol-1-yl)-1,4-dihydrothieno[2,3-d]pyrimidin-3(2H)-yl)-2-methylpropanamide]		> 50 µg/mL		> 50 µg/mL				10 µg/mL (≈ 19 µM)		> 50 µg/mL			> 50 µg/mL	> 50 µg/mL	> 50 µg/mL	> 50 µg/mL	

Compound	MIC (C. albicans ATCC 90028)	MIC (C. krusei ATCC 6258)	MIC [1]	IC50 (human (hACC2) ACC2)	IC90 ([2]; Table 4a)	IC90 ([2]; Table 4b)	IC90 ([3]; Table 4a)	IC90 ([3]; Table 4b)	Concentration at 90% Inhibition St (Septoria tritici (St); Table 4b)	IC90 (Septoria tritici (St); Table 4a)	IC90 (Rhizoctonia solani (Rs); Table 4a)	IC90 (Rhizoctonia solani (Rs); Table 4b)	IC90 (Diplodia maydis (Dm); Table 4a)	IC90 (Diplodia maydis (Dm); Table 4b)	IC90 ([4]; Table 4a)	Concentration at 90% Inhibition Pc ([4]; Table 4b)	IC90 ([5]; Table 4b)	IC90 (Botrtyis cinerea (Bc); Table 4b)	IC90 (Septoria tritici (St); Table 4b)	IC90 ([4]; Table 4b)	further results
COc1ccccc1[C@H](Cn1c(=O)n(C(C)(C)C(N)=O)c(=O)c2c(C)c(-n3cccn3)sc21)OCC(C)C [Compound I-20, (R)-2-(1-(2-isobutoxy-2-(2-methoxyphenyl)ethyl)-5-methyl-2,4-dioxo-6-(1H-pyrazol-1-yl)-1,4-dihydrothieno[2,3-d]pyrimidin-3(2H)-yl)-2-methylpropanamide]				3 to 10 nM		10 µg/mL (≈ 18.5 µM)		> 50 µg/mL				> 50 µg/mL		10 µg/mL (≈ 18.5 µM)			> 50 µg/mL	10 µg/mL (≈ 18.5 µM)	> 50 µg/mL	> 50 µg/mL	
